Data taken from patent publication US4504580A, “Antibiotics produced by fermentation of a novel strain of Streptomyces hygroscopicus” (Bristol-Myers Company, priority 1983, dated 1985).
In brackets after ≈: the same amount, converted by molar mass. Where two headings read alike, the source gives them in different places.

Key:
[1] = system: Mycobacterium ranae; assay: MIC by serial two-fold agar dilution, M. ranae; assay type: cell-based; conditions: Mycobacterium; Table 8; No. 1001 medium; read-out: MIC
Method: (§1) The minimum inhibitory concentrations (MIC) of Bu-2659A, B, C, D and E were determined for a variety of gram-positive and gram-negative bacteria by the serial two-fold agar dilution method using the Steer's multi-inoculating apparatus. The inoculum was standardized as a 10^4 dilution of an overnight culture of the test organisms in Heart Infusion Broth (Difco). […] Reference antibiotics utilized in these tests included commercially available neomycin as well as its components, neomycins B and C [as used herein, the term "neomycin" means the commercial product containing neomycins B and C at an approximate ratio of 7:3], paromomycin [the commercial product containing >90% of paromomycin I and <10% of paromomycin II] and ribostamycin.

[2] = system: Escherichia coli JR66/W677; assay: MIC, aminoglycoside-resistant E. coli JR66/W677; assay type: cell-based; conditions: Escherichia coli, JR66/W677
Method: as §1

[3] = system: Micrococcus flavus D12; assay: MIC by serial two-fold agar dilution, M. flavus D12; assay type: cell-based; conditions: Micrococcus flavus, D12; Table 7; Mueller-Hinton agar; read-out: MIC
Method in brief: (§2)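 Serial two-fold agar dilution with a Steer multi-inoculating apparatus. Inoculum standardized as a 10^4 dilution of an overnight Heart Infusion Broth culture of each organism.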

[4] = system: Mycobacterium smegmatis 607; assay: MIC by serial two-fold agar dilution, M. smegmatis 607; assay type: cell-based; conditions: Mycolicibacterium smegmatis, 607; Table 8; No. 1001 medium; read-out: MIC
Method: as §1

[5] = system: Neisseria meningitidis A21496; assay: MIC by serial two-fold agar dilution, N. meningitidis A21496; assay type: cell-based; conditions: Neisseria meningitidis, A21496; Table 8; GC medium; read-out: MIC
Method: as §1

[6] = system: Klebsiella pneumoniae D-11; assay: Experimental systemic infection in mice, K. pneumoniae D-11; assay type: in vivo; conditions: Klebsiella pneumoniae, D11, 96 h, im, single treatment, 4 days, read-out: PD50
Method: (§3) The in vivo activity of Bu-2659A was assessed by experimental systemic infection in mice. The pathogenic bacteria used in the in vivo tests were E. coli Juhl, K. pneumoniae D-11, P. mirabilis A9906, S. aureus Smith and S. pyogenes A20201. Mice were challenged intraperitoneally with approximately 100×LD50 dose of the pathogens in a 5% suspension of hog gastric mucin (American Laboratories, Omaha, Neb.). A single intramuscular treatment with the antibiotic was given immediately after the bacterial challenge. […] Neomycin was comparatively tested as a reference compound. […] In terms of PD50 value Bu-2659A was about one-half as active as neomycin against infections with S. aureus and S. pyogenes.

[7] = Acute toxicity in mice; assay type: in vivo; conditions: for LD50: mouse, in vivo, mice, read-out: LD50
Method: The acute toxicity of Bu-2659A was determined in mice by intravenous, intraperitoneal and subcutaneous routes. Neomycin also was tested for comparison purposes. […] The toxicity of Bu-2659A was approximately 1/3 that of neomycin in terms of LD50 values, thus presenting a potential clinical advantage for Bu-2659A.

[8] = system: Bacillus brevis IFO 12334; assay: MIC, aminoglycoside-resistant B. brevis IFO 12334; assay type: cell-based; conditions: Brevibacillus brevis, IFO12334; Table 9; inactivating enzyme ANT (4'); Mueller-Hinton agar; read-out: MIC
Method: as §1

[9] = system: Streptococcus pyogenes A20201; assay: Experimental systemic infection in mice, S. pyogenes A20201; assay type: in vivo; conditions: Streptococcus pyogenes, A20201, 96 h, im, single treatment, 4 days, read-out: PD50
Method: as §3

[10] = system: Proteus mirabilis A9554; assay: MIC by serial two-fold agar dilution, P. mirabilis A9554; assay type: cell-based; conditions: Proteus mirabilis, A9554; Table 7; Mueller-Hinton agar; read-out: MIC
Method in brief: as §2

[11] = system: E. coli Juhl, K. pneumoniae D-11, P. mirabilis A9906, S. aureus Smith and S. pyogenes A20201; assay: Experimental systemic infection in mice, overall; assay type: in vivo
Method: as §3

[12] = system: Pseudomonas aeruginosa A20896; assay: MIC, aminoglycoside-resistant P. aeruginosa A20896; assay type: cell-based; conditions: Pseudomonas aeruginosa, A20896; Table 9; inactivating enzyme AAC(3)-II; Mueller-Hinton agar; read-out: MIC
Method: as §1

[13] = system: Proteus vulgaris A9436; assay: MIC by serial two-fold agar dilution, P. vulgaris A9436; assay type: cell-based; conditions: Proteus vulgaris, A9436; Table 7; Mueller-Hinton agar; read-out: MIC
Method in brief: as §2

[14] = system: Escherichia coli JR88; assay: MIC, aminoglycoside-resistant E. coli JR88; assay type: cell-based; conditions: Escherichia coli, JR88
Method in brief: as §2

[15] = system: Staphylococcus aureus A20239; assay: MIC, aminoglycoside-resistant S. aureus A20239; assay type: cell-based; conditions: Staphylococcus aureus, A20239; Table 9; inactivating enzyme APH(3')-I,II; Mueller-Hinton agar; read-out: MIC
Method: as §1

[16] = system: Neisseria gonorrhoeae A20143; assay: MIC by serial two-fold agar dilution, N. gonorrhoeae A20143; assay type: cell-based; conditions: Neisseria gonorrhoeae, A20143; Table 8; GC medium; read-out: MIC
Method: as §1

[17] = system: Escherichia coli Juhl; assay: Experimental systemic infection in mice, E. coli Juhl; assay type: in vivo; conditions: Escherichia coli, 96 h, im, single treatment, 4 days, read-out: PD50
Method: as §3

[18] = system: Escherichia coli JR35/C600; assay: MIC, aminoglycoside-resistant E. coli JR35/C600; assay type: cell-based; conditions: Escherichia coli, JR35/C600
Method: as §1

[19] = system: Pseudomonas aeruginosa A20601; assay: MIC, aminoglycoside-resistant P. aeruginosa A20601; assay type: cell-based; conditions: Pseudomonas aeruginosa, A20601; Table 9; inactivating enzymes AAC(3)-I, APH(3')-II; Mueller-Hinton agar; read-out: MIC
Method: as §1

NC[C@@H]1O[C@H](O[C@H]2[C@@H](O)[C@H](O[C@@H]3[C@@H](O)[C@H](O)C[C@H](N)[C@H]3O[C@H]3O[C@H](CN)[C@@H](O)[C@H](O)[C@H]3N)O[C@@H]2CO)[C@H](N)[C@@H](O)[C@@H]1O [Bu-2659A, 1-deamino-1-hydroxyneomycin B]
MIC [1]: 0.4 mg/L (≈ 0.65 µM) | MIC [2]: > 100 mg/L | MIC [3]: 6.3 mg/L (≈ 10.2 µM) | MIC [4]: 0.4 mg/L (≈ 0.65 µM) | MIC [5]: 50 mg/L (≈ 81.2 µM) | ED50 [6]: 1.1 mg/kg | acute toxicity compared with neomycin, in words ([7]; all routes of administration): significantly less toxic than neomycin | toxicity relative to neomycin in terms of LD50 values ([7]; intravenous, intraperitoneal, subcutaneous): approximately 1/3 | LD50 ([7]; ip, intraperitoneal): 460 mg/kg | LD50 ([7]; sc, subcutaneous): 720 mg/kg | LD50 ([7]; intravenous): 110 mg/kg | MIC [8]: > 100 mg/L | ED50 [9]: 50 mg/kg | MIC [10]: 0.8 mg/L (≈ 1.3 µM) | protection in mice, in words ([11]; five experimental infections): excellent protection | in vivo activity relative to neomycin, in terms of PD50 ([11]; infections with S. aureus and S. pyogenes): about one-half | in vivo activity compared with neomycin, in words ([11]; infections with three gram-negative bacteria): comparable to that of neomycin | MIC [12]: > 100 mg/L | MIC [13]: 0.4 mg/L (≈ 0.65 µM) | MIC [14]: 1.6 mg/L (≈ 2.6 µM) | MIC [15]: 12.5 mg/L (≈ 20.3 µM) | MIC [16]: 50 mg/L (≈ 81.2 µM) | ED50 [17]: 3.1 mg/kg | MIC [18]: 25 mg/L (≈ 40.6 µM) | MIC [19]: 6.3 mg/L (≈ 10.2 µM)
